In the assay the test system is PBMCs. Kind of assay: Foxp3+ Treg proportion in anti-CD3 stimulated PBMCs. Format: cell-based, human. The conditions noted are these: in the absence of RSKAKNPLYR-(2Adod)4-NH2; FIG. 9. How it is done: Shown is the percentage inhibition of Regulatory T cells (Tregs:Foxp3+) within human PBMCs in the presence of RSKAKNPLYR-(2Adod)4-NH2 (cells gated for CD4+/CD25+/CD127101. Anti-CD3 stimulated PBMCs were cultured together with RSKAKNPLYR-(2Adod)4-NH2 over a 5-concentration range plus vehicle control (0-1.25 μM) for 48 hrs. Treg populations were determined by measuring Foxp3+ proportion of cells within CD4+CD25+CD127^low population. Data were normalised due to donor variation. Data presented indicates the fold change in Foxp3+ Treg proportions in response to peptide treatment, +/−SEM, n=4. Data were analysed by RM two-way ANOVA with Dunnett's post-test comparing each peptide concentration with […], **p<0.01, ****p<0.0001. Dotted line indicates vehicle control for normalisation.
Anti-CD3 stimulated PBMCs were cultured together with RSKAKNPLYR-(2Adod)4-NH2, over a 5-concentration range plus vehicle control (0-1.25 μM) in combination with anti-PD-1 (Pembrolizumab) or isotype (hlgG4) for 48 hrs after which CD4+ and CD8+ T cells were assessed by flow cytometry. Treg populations were determined by measuring Foxp3+ proportion of cells within CD4+CD25+CD127^low populations. […] Data were analysed by RM two-way ANOVA with Sidak's post-test comparing peptide in combination with anti-PD-1 vs combination with hlgG4 at each dose, *p<0.05, **p<0.01. […]

In the case of Pembrolizumab [anti-PD-1 antibodies], the “proportion of Treg cells within PBMCs, anti-PD-1 versus isotype control” value is recorded as “same proportion of Treg cells”.

The values are drawn from patent US11912789B2, “Peptide activating agent” (Interk Peptide Therapeutics Limited, priority 2018, dated 2024).
